In brackets after ≈: the same amount, converted by molar mass. Like-named read-outs stand apart in the source and are kept apart here. Non-standard residues stand in square brackets, D forms with d. Residues, ends and D or L forms follow the SMILES beside them. ξ: configuration not given here. Trp(5-F) = N[C@@H](Cc1c[nH]c2ccc(F)cc12)C(=O)O; ξTrp(5-Me) = Cc1ccc2[nH]cc(CC(N)C(=O)O)c2c1
What was measured:
Assay type in all cases: cell-based
[1] = test system: Pseudomonas aeruginosa (ATCC 27853); settings: ATCC 27853, 3 h, pH 7.4
Excerpt: (§1) The bacterial strains for the antimicrobial assay were obtained from the ATCC (American Type Culture Collection, Manassas, VA, USA) and NCTC (National Collection of Type Cultures, Salisbury, UK). Gram-negative strains were Pseudomonas aeruginosa (ATCC 27853), Escherichia coli (ATCC 8739, ATCC 35218, and ATCC 25922), Salmonella enterica (ATCC 13076), Klebsiella pneumoniae (NCTC 13440), Acinetobacter baumannii (ATCC 17978) and the Gram-positive strains were Enterococcus faecalis (ATCC 29212), Listeria monocytogenes (ATCC 19111), and Staphylococcus aureus (HNCMO112011 and ATCC 25923).
(§2) Determination of antibacterial activity for the peptides was carried out by utilizing a minimum bactericidal concentration (MBC) bioassay. Synthesized peptides were dissolved in sterile water and used from 25 to 0.125 μM in 2-fold dilution series and incubated with ~10^7 log phase bacteria in Potassium-Phosphate Buffer (PPB, pH: 7.4) for three hours as described earlier. After that, 5 μl of each sample was placed on LB agar and the growth of bacteria was monitored after overnight incubation at 37 °C. The lowest concentration of the antimicrobial agents that completely eliminated viable bacteria was considered the minimal bactericidal concentration (MBC).

[2] = test system: Acinetobacter baumannii (ATCC 17978); settings: ATCC 17978, 3 h, pH 7.4
Excerpt: as §1, §2

[3] = test system: Escherichia coli (ATCC 8739); settings: ATCC 8739, 3 h, pH 7.4
Excerpt: as §1, §2

[4] = test system: Listeria monocytogenes (ATCC 19111); settings: ATCC 19111, 3 h, pH 7.4
Excerpt: as §1, §2

[5] = test system: Enterococcus faecalis (ATCC 29212)
Excerpt: as §1, §2

[6] = test system: Staphylococcus aureus (HNCMO112011); settings: HNCMO112011, 3 h, pH 7.4
Excerpt: as §1, §2

[7] = test system: Salmonella enterica (ATCC 13076); settings: ATCC 13076, 3 h, pH 7.4
Excerpt: as §1, §2

[8] = test system: Klebsiella pneumoniae (NCTC 13440); settings: NCTC 13440, 3 h, pH 7.4
Excerpt: as §1, §2

## CC[C@H](C)[C@H](NC(=O)[C@H](CCCCN)NC(=O)[C@H](Cc1ccccc1)NC(=O)[C@H](CC(C)C)NC(=O)[C@@H]1CCCN1C(=O)[C@H](CCCCN)NC(=O)[C@H](CCCCN)NC(=O)[C@H](CO)NC(=O)[C@@H](N)CCCCN)C(=O)N[C@@H](Cc1c[nH]c2ccccc12)C(=O)N[C@@H](CCCCN)C(=O)N[C@@H](CO)C(=O)N[C@H](C(=O)N[C@@H](CCC(=O)O)C(=O)N[C@@H](CC(N)=O)C(=O)N[C@H](C(=O)N[C@@H](CO)C(=O)N[C@H](C(=O)N[C@@H](CC(C)C)C(=O)N[C@@H](Cc1c[nH]c2ccc(F)cc12)C(=O)N[C@@H](Cc1ccc(O)cc1)C(=O)N[C@@H](CCCCN)C(N)=O)C(C)C)C(C)C)C(C)C [NCR169C17–38C12,17/S-20W^5-F-L] (H-KSKKPLFKIWKSVENVSVL[Trp(5-F)]YK-NH2; N-terminus assumed)
[1]
  Minimal bactericidal concentration (MBC) P. a.: 6.3 µM (≈ 17.2 µg/mL)
[2]
  Minimal bactericidal concentration (MBC) A. b.: 3.1 µM (≈ 8.45 µg/mL)
[3]
  Minimal bactericidal concentration (MBC) E. c.: 3.1 µM (≈ 8.45 µg/mL)
[4]
  Minimal bactericidal concentration (MBC) L. m.: 3.1 µM (≈ 8.45 µg/mL)
[5]; ATCC 29212, 3 h, pH 7.4
  Minimal bactericidal concentration (MBC) E. f.: 3.1 µM (≈ 8.45 µg/mL)
[6]
  Minimal bactericidal concentration (MBC) S. a.: 1.6 µM (≈ 4.36 µg/mL)
[7]
  Minimal bactericidal concentration (MBC) S. e.: 3.1 µM (≈ 8.45 µg/mL)
[8]
  Minimal bactericidal concentration (MBC) K. p.: 3.1 µM (≈ 8.45 µg/mL)

## CC[C@H](C)[C@H](NC(=O)[C@H](CCCCN)NC(=O)[C@H](Cc1ccccc1)NC(=O)[C@H](CC(C)C)NC(=O)[C@@H]1CCCN1C(=O)[C@H](CCCCN)NC(=O)[C@H](CCCCN)NC(=O)[C@H](CO)NC(=O)[C@@H](N)CCCCN)C(=O)N[C@@H](Cc1c[nH]c2ccccc12)C(=O)N[C@@H](CCCCN)C(=O)N[C@@H](CO)C(=O)N[C@H](C(=O)N[C@@H](CCC(=O)O)C(=O)N[C@@H](CC(N)=O)C(=O)N[C@H](C(=O)N[C@@H](CO)C(=O)N[C@H](C(=O)N[C@@H](CC(C)C)C(=O)NC(Cc1c[nH]c2ccc(C)cc12)C(=O)N[C@@H](Cc1ccc(O)cc1)C(=O)N[C@@H](CCCCN)C(N)=O)C(C)C)C(C)C)C(C)C (stereo partly shown) [NCR169C17–38C12,17/S-20W^5-Me II] (H-KSKKPLFKIWKSVENVSVL[ξTrp(5-Me)]YK-NH2; N-terminus assumed)
[1]
  Minimal bactericidal concentration (MBC) P. a.: 3.1 µM (≈ 8.44 µg/mL)
[2]
  Minimal bactericidal concentration (MBC) A. b.: 3.1 µM (≈ 8.44 µg/mL)
[3]
  Minimal bactericidal concentration (MBC) E. c.: 1.6 µM (≈ 4.35 µg/mL)
[4]
  Minimal bactericidal concentration (MBC) L. m.: 3.1 µM (≈ 8.44 µg/mL)
[5]; Enterococcus faecalis ATCC 29212, ~10^7 log phase bacteria, 3 h in potassium-phosphate buffer (PPB) pH 7.4, peptide 25 to 0.125 μM 2-fold series, 5 μl on LB agar, overnight 37 °C
  Minimal bactericidal concentration (MBC) E. f.: 25 µM (≈ 68 µg/mL)
[6]
  Minimal bactericidal concentration (MBC) S. a.: 3.1 µM (≈ 8.44 µg/mL)
[7]
  Minimal bactericidal concentration (MBC) S. e.: 3.1 µM (≈ 8.44 µg/mL)
[8]
  Minimal bactericidal concentration (MBC) K. p.: 3.1 µM (≈ 8.44 µg/mL)

## CC[C@H](C)[C@H](NC(=O)[C@H](CCCCN)NC(=O)[C@H](Cc1ccccc1)NC(=O)[C@H](CC(C)C)NC(=O)[C@@H]1CCCN1C(=O)[C@H](CCCCN)NC(=O)[C@H](CCCCN)NC(=O)[C@H](CO)NC(=O)[C@@H](N)CCCCN)C(=O)N[C@@H](C)C(=O)N[C@@H](CCCCN)C(=O)N[C@@H](CO)C(=O)N[C@H](C(=O)N[C@@H](CCC(=O)O)C(=O)N[C@@H](CC(N)=O)C(=O)N[C@H](C(=O)N[C@@H](CO)C(=O)N[C@H](C(=O)N[C@@H](CC(C)C)C(=O)N[C@@H](C)C(=O)N[C@@H](Cc1ccc(O)cc1)C(=O)N[C@@H](CCCCN)C(N)=O)C(C)C)C(C)C)C(C)C [NCR169C17–38W10,20/A,C12,17/S] (H-KSKKPLFKIAKSVENVSVLAYK-NH2)
[1]
  Minimal bactericidal concentration (MBC) P. a.: 3.1 µM (≈ 7.68 µg/mL)
[2]
  Minimal bactericidal concentration (MBC) A. b.: 12.5 µM (≈ 31 µg/mL)
[3]
  Minimal bactericidal concentration (MBC) E. c.: 6.3 µM (≈ 15.6 µg/mL)
[4]
  Minimal bactericidal concentration (MBC) L. m.: 3.1 µM (≈ 7.68 µg/mL)
[5]; ATCC 29212, 3 h, pH 7.4
  Minimal bactericidal concentration (MBC) E. f.: 25 µM (≈ 61.9 µg/mL)
[6]
  Minimal bactericidal concentration (MBC) S. a.: 6.3 µM (≈ 15.6 µg/mL)
[7]
  Minimal bactericidal concentration (MBC) S. e.: 6.3 µM (≈ 15.6 µg/mL)

## CC[C@H](C)[C@H](NC(=O)[C@H](CCCCN)NC(=O)[C@H](Cc1ccccc1)NC(=O)[C@H](CC(C)C)NC(=O)[C@@H]1CCCN1C(=O)[C@H](CCCCN)NC(=O)[C@H](CCCCN)NC(=O)[C@H](CO)NC(=O)[C@@H](N)CCCCN)C(=O)N[C@@H](C)C(=O)N[C@@H](CCCCN)C(=O)N[C@@H](C)C(=O)N[C@H](C(=O)N[C@@H](CCC(=O)O)C(=O)N[C@@H](CC(N)=O)C(=O)N[C@H](C(=O)N[C@@H](C)C(=O)N[C@H](C(=O)N[C@@H](CC(C)C)C(=O)N[C@@H](C)C(=O)N[C@@H](Cc1ccc(O)cc1)C(=O)N[C@@H](CCCCN)C(N)=O)C(C)C)C(C)C)C(C)C [NCR169C17–38W10,20C12,17/A] (H-KSKKPLFKIAKAVENVAVLAYK-NH2)
[1]
  Minimal bactericidal concentration (MBC) P. a.: 3.1 µM (≈ 7.58 µg/mL)
[2]
  Minimal bactericidal concentration (MBC) A. b.: 12.5 µM (≈ 30.6 µg/mL)
[3]
  Minimal bactericidal concentration (MBC) E. c.: 6.3 µM (≈ 15.4 µg/mL)
[6]
  Minimal bactericidal concentration (MBC) S. a.: 6.3 µM (≈ 15.4 µg/mL)
[7]
  Minimal bactericidal concentration (MBC) S. e.: 6.3 µM (≈ 15.4 µg/mL)

Reference: paper PMC9917201, “Enhanced Antibacterial Activity of Substituted Derivatives of NCR169C Peptide” (International Journal of Molecular Sciences, 2023)
